Measurements from patent US20090263780A1, “Organ preservation fluid” (priority 2008, published 2009).

System: Cortical neurons cultures
Assay: Neuron viability (MTT reduction test) after anoxic insult
Assay type: cell-based, Sprague-Dawley rats
Description: Neuron culture: Cortical neurons cultures were prepared from fetal Sprague-Dawley rats at 17-day gestation. Timed pregnant Sprague-Dawley rats were euthanized with isoflorane. After dissection of the cortical region of the fetal brain, cortical neurons were dispersed by trituration, centrifuged at 250 g for 5 minutes at 4° C., and suspended in a neurobasal medium supplemented with 25 μmol/L glutamic acid, 0.5 mmol/L glutamine, 1% antibiotic-antimycotic solution, and 2% B27 supplement. Cells were plated at 5×10^5 cells/ml on poly-L-lysine-coated 24-well plates. Cytosine (10 μmol/) was added at day 3. Neuron cultures were fed every 4 days with replacement of half of neurobasal medium containing 0.5 mmol/L glutamine, 1% antibiotic-antimycotic solution, and 2% B27 supplement. The culture plates were incubated at 37° C. in a humid atmosphere with 5% CO2. […]
Validation of neurons' survival: Neuronal viability was quantitatively evaluated by a methyl thiazole tetrazolium (MTT) reduction test. This quantifies the formation of a dark blue formazan product formed by the reduction of the tetrazolium ring of MTT by the mitochondrial succinate dehydrogenase in living cells. […] Cell viability corresponded to the value of the optical density read at 570 nm with background subtraction at 630 nm. Results were expressed as percent of the optical density measured in normal control cells.

## B: 2 wt % albumin (native bovine serum albumin, molecular weight 68 kDa, pI 4.8) + ACSF
ACSF supplemented with the polypeptide, anoxic environment, comparison
  Neuronal viability after anoxia, result in words: significantly increased neuronal viability
Anoxia 60 mins at 37° C., culture media replaced by 2 wt % test polypeptide + ACSF, MTT 24 hours after anoxia, percent of optical density in normal control cells
  Neuron's viability (Percentage, Mean ± SD): 96 ± 3.9 Percentage
